Reference: the NIST ThermoML archive (doi:10.1021/je300945r)

F/C=C/C(F)(F)F [trans-1,3,3,3-tetrafluoropropene]
Settings	mass density [kg/m3]
343.15 K, 9736 kPa, Liquid, Vibrating tube method	1068.9
343.15 K, 10753 kPa, Liquid, Vibrating tube method	1076.1
343.15 K, 11770 kPa, Liquid, Vibrating tube method	1082.8
343.15 K, 12788 kPa, Liquid, Vibrating tube method	1089.2
343.15 K, 15829 kPa, Liquid, Vibrating tube method	1106.7
343.15 K, 17849 kPa, Liquid, Vibrating tube method	1117.1
343.15 K, 18851 kPa, Liquid, Vibrating tube method	1122
343.15 K, 19867 kPa, Liquid, Vibrating tube method	1126.8
343.15 K, 20877 kPa, Liquid, Vibrating tube method	1131.4
343.15 K, 21883 kPa, Liquid, Vibrating tube method	1135.8
343.15 K, 22905 kPa, Liquid, Vibrating tube method	1140.2
343.15 K, 23913 kPa, Liquid, Vibrating tube method	1144.3
343.15 K, 24913 kPa, Liquid, Vibrating tube method	1148.4
343.15 K, 25929 kPa, Liquid, Vibrating tube method	1152.4
343.15 K, 26933 kPa, Liquid, Vibrating tube method	1156.2
343.15 K, 27938 kPa, Liquid, Vibrating tube method	1160
343.15 K, 28947 kPa, Liquid, Vibrating tube method	1163.6
343.15 K, 29953 kPa, Liquid, Vibrating tube method	1167.2
343.15 K, 30968 kPa, Liquid, Vibrating tube method	1170.7
343.15 K, 31987 kPa, Liquid, Vibrating tube method	1174.2
343.15 K, 32989 kPa, Liquid, Vibrating tube method	1177.5
343.15 K, 33994 kPa, Liquid, Vibrating tube method	1180.8
343.16 K, 13798 kPa, Liquid, Vibrating tube method	1095.3
343.16 K, 14817 kPa, Liquid, Vibrating tube method	1101.1
343.16 K, 16838 kPa, Liquid, Vibrating tube method	1112
352.95 K, 306.8 kPa, Gas, isochoric method	12.346
352.96 K, 306.9 kPa, Gas, isochoric method	12.346
352.99 K, 522.8 kPa, Gas, isochoric method	21.739
353 K, 191.9 kPa, Gas, isochoric method	7.634
353 K, 672 kPa, Gas, isochoric method	28.571
353 K, 672.1 kPa, Gas, isochoric method	28.571
353 K, 867.3 kPa, Gas, isochoric method	38.462
353.01 K, 84.1 kPa, Gas, isochoric method	3.3
353.01 K, 191.9 kPa, Gas, isochoric method	7.634
353.01 K, 458.4 kPa, Gas, isochoric method	19.231
353.01 K, 739.8 kPa, Gas, isochoric method	32.258
353.02 K, 84.1 kPa, Gas, isochoric method	3.3
353.02 K, 739.8 kPa, Gas, isochoric method	32.258
353.03 K, 950.8 kPa, Gas, isochoric method	43.478
353.14 K, 30961 kPa, Liquid, Vibrating tube method	1149
353.15 K, 2236 kPa, Liquid, Vibrating tube method	936.2
353.15 K, 9793 kPa, Liquid, Vibrating tube method	1035.4
353.15 K, 12814 kPa, Liquid, Vibrating tube method	1058.8
353.15 K, 15825 kPa, Liquid, Vibrating tube method	1078.4
353.15 K, 16834 kPa, Liquid, Vibrating tube method	1084.4
353.15 K, 18850 kPa, Liquid, Vibrating tube method	1095.7
353.15 K, 19865 kPa, Liquid, Vibrating tube method	1101
353.15 K, 21883 kPa, Liquid, Vibrating tube method	1111
